Counter-ions that a name gives are not always drawn. Like-named read-outs stand apart in the source and are kept apart here.
Key:
dopamine D-1 receptor [1] = settings: for Intrinsic Activity (adenylate cyclase assay): dopamine = 100, goldfish retina or rat striatum; for EC50: read-out: EC50 (agonist activity in adenylate cyclase assay), tissue from goldfish retina or rat striatum
Method: In order to determine agonist activity, cell-free tissue homogenates are incubated in an ionic buffer solution containing ATP and the compound being evaluated. The tissue was obtained from either goldfish retina or rat striatum.

[2] = tested on: striatal dopamine receptors; assay: Rotation behavior assay of in vivo activity (6-hydroxydopamine lesioned rat rotational model); settings: for ED50 s.c. (rotation behavior): injected subcutaneously
dopamine D-1 receptor [3] = target: dopamine D-1 receptor (Rattus norvegicus, UniProt P18901); assay: biochemical; settings: D-1 Ki, rat caudate, [125I]SCH-23982
dopamine D-1 receptor (Rattus norvegicus, UniProt P18901), sequence (P18901 whole entry): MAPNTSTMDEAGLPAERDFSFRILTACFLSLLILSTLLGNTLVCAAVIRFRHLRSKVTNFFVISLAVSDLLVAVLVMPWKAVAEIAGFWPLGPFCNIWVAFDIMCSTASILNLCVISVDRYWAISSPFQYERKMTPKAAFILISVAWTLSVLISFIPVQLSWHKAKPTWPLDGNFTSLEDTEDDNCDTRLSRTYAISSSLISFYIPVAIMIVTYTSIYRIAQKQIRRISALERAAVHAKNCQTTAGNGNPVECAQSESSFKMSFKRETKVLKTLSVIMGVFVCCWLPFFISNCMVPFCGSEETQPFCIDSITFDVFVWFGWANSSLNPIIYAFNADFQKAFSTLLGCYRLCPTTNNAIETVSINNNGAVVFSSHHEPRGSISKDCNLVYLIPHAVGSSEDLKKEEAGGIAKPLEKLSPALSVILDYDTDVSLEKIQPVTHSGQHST
Text: The compounds compete with the radiolabeled ligand for occupancy of the receptors and the molar potency of each compound was quantified.
The Ki values are inversely proportional to the affinity of the compound for the receptor.

dopamine D-2 receptor = dopamine D-2 receptor (Rattus norvegicus, UniProt P61169); assay: biochemical; assay type: binding; settings: rat caudate, [125I]-p-aminophenylethyl spiroperidol; read-out: D-2 Ki
dopamine D-2 receptor, sequence (P61169 whole entry): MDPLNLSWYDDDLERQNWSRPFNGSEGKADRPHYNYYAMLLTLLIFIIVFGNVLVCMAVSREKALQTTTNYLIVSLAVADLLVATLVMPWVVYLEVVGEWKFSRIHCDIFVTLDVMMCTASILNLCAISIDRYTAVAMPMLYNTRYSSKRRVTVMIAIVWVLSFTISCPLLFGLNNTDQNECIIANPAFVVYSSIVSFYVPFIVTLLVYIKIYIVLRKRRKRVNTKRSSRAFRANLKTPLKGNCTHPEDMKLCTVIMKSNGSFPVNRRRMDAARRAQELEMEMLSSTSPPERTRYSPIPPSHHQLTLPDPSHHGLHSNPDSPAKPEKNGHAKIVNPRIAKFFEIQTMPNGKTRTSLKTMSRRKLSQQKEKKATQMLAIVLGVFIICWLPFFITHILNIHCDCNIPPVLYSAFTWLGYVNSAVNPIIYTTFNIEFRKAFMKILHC
Method: Homogenized rat caudate was the source of the D-2 receptors. […] The molar affinity of the compound for the receptor binding site was calculated by the same method used for the D-1 receptor assay, assuming a competitive interaction between the compound and the radiolabeled ligand.

| Compound | Intrinsic Activity (adenylate cyclase assay) (dopamine D-1 receptor [1]) | EC50 (dopamine D-1 receptor [1]; Hydrobromide) | ED50 s.c. (rotation behavior) [2] | ED50 oral (rotation behavior) [2] | Ki (dopamine D-1 receptor [3]) | Ki (dopamine D-2 receptor) | EC50 (dopamine D-1 receptor [1]) | Intrinsic Activity (adenylate cyclase assay) (dopamine D-1 receptor [1]; Hydrobromide) |
| --- | --- | --- | --- | --- | --- | --- | --- | --- |
| Br.CN1CCC2=C(C1)c1ccc(O)c(O)c1CC2c1ccccc1 (stereo not shown) [Example 210, 2-Methyl-5-phenyl-1,2,3,4,5,6-hexahydrobenzo[h]isoquinoline-7,8-diol Hydrobromide] | 98 | 52 nM | 0.005 µmol/kg | 1.6 µmol/kg | 47 nM | 1300 nM |  |  |
| CC(C)CC1Cc2c(ccc(O)c2O)C(CN)O1 (stereo not shown) [Example 216] | 114 |  | 0.07 µmol/kg |  | 3 nM | 3700 nM | 5 nM |  |
| CC[C@H]1Cc2c(ccc(O)c2O)[C@@H](CN)O1 (relative stereo) [Example 51] | 88 |  | 7 µmol/kg |  | 235 nM | 3900 nM | 180 nM |  |
| CC(C)C[C@@H]1Cc2c(ccc(O)c2O)[C@H](CN)O1 (relative stereo) [Example 89] | 130 |  | 0.12 µmol/kg | 7 µmol/kg | 21 nM | 1400 nM | 7 nM |  |
| CNC[C@H]1O[C@@H](CC(C)(C)C)Cc2c1ccc(O)c2O (relative stereo) [Example 146] | 82 |  | 0.12 µmol/kg | 7 µmol/kg | 49 nM | 1400 nM | 120 nM |  |
| CN(C)C[C@@H]1O[C@H](C(C)(C)C)Cc2c1ccc(O)c2O [Example 147] | 89 |  | 0.05 µmol/kg |  | 400 nM | > 10000 nM | 66 nM |  |
| CNC[C@@H]1O[C@H](C2(c3ccccc3)CCCCC2)Cc2c1ccc(O)c2O (relative stereo) [Example 225] | 76 |  | > 3 µmol/kg |  | 90 nM | 1700 nM | 130 nM |  |
| CNC[C@@H]1O[C@H](C(C)(C)C)Cc2c1ccc(O)c2O.Cl [Example 112, [1R,3S]3-t-butyl-5,6-dihydroxy-1-methylaminomethyl-3,4-dihydro-1H-2-benzopyran hydrochloride] | 124 |  | 0.10 µmol/kg | 1.0 µmol/kg | 38 nM | 1500 nM | 8 nM |  |
| NC[C@H]1O[C@@H](COc2ccccc2)Cc2c1ccc(O)c2O (relative stereo) [Example 55] | 51 |  | 13.6 µmol/kg |  | 380 nM | 1500 nM | 24 nM |  |
| C=CC(C)[C@H]1Cc2c(ccc(O)c2O)[C@@H](CN)O1 (relative stereo) [Example 105] | 110 |  | 0.17 µmol/kg |  | 17 nM | 1000 nM | 9 nM |  |
| CNC[C@@H]1O[C@H](C2(C)CCCCC2)Cc2c1ccc(O)c2O (relative stereo) [Example 226] | 89 |  | > 1 µmol/kg |  | 20 nM | 1500 nM | 40 nM |  |
| CN(C)C[C@@H]1O[C@H](C23CC4CC(CC(C4)C2)C3)Cc2c1ccc(O)c2O [Example 148] | 79 |  | 0.12 µmol/kg | 11 µmol/kg | 64 nM | 4600 nM | 22 nM |  |
| CN(C)C[C@@H]1O[C@H](C2CCCCC2)Cc2c1ccc(O)c2O (relative stereo) [Example 228] | 71 |  | 0.1 µmol/kg |  | 30 nM | > 10000 nM | 280 nM |  |
| CC(C)(C)C[C@H]1Cc2c(ccc(O)c2O)[C@@H](CN)O1 (relative stereo) [Example 104] | 110 |  | 0.13 µmol/kg | 5 µmol/kg | 37 nM | > 10000 nM | 54 nM |  |
| NC[C@@H]1O[C@H](CC23CC4CC(CC(C4)C2)C3)Cc2c1ccc(O)c2O (relative stereo) [Example 90] | 128 |  | 0.6 µmol/kg | 8 µmol/kg | 76 nM | 900 nM | 22 nM |  |
| Oc1ccc2c(c1O)CC1(CCCCCCCCC1)C1=C2CNCC1 [Example 240] | 70 |  | > 3 µmol/kg |  | 750 nM | 5200 nM | 130 nM |  |
| NCC1OC(CC2CCCC2)Cc2c1ccc(O)c2O (stereo not shown) [Example 215] | 114 |  | 0.55 µmol/kg |  | 20 nM | 800 nM | 20 nM |  |
| NCC1OC2(CCCCCCCC2)Cc2c1ccc(O)c2O (stereo not shown) [Example 221] | 84 |  | > 3 µmol/kg |  | 90 nM | > 10000 nM | 80 nM |  |
| NC[C@@H]1O[C@H](CC2CCCCC2)Cc2c1ccc(O)c2O (relative stereo) [Example 88] | 133 |  | 0.61 µmol/kg | 32 µmol/kg | 130 nM | 1500 nM | 12 nM |  |
| CNC[C@@H]1O[C@H](C23CC4CC(CC(C4)C2)C3)Cc2c1cc(F)c(O)c2O [Example 145] | 49 |  | 0.31 µmol/kg |  | 67 nM | 12000 nM | 38 nM |  |
| Oc1ccc2c(c1O)CC1(CCCCCCCC1)C1=C2CNCC1 [Example 241] | 48 |  | > 3 µmol/kg |  | 400 nM | 2900 nM | 400 nM |  |
| CNC[C@@H]1O[C@H](c2ccccc2)Cc2c1ccc(O)c2O [Example 138] | 157 |  | 0.15 µmol/kg |  | 3 nM | 2200 nM | 51 nM |  |
| NCC1OC2(CCCCCC2)Cc2c1ccc(O)c2O (stereo not shown) [Example 93] | 113 |  | 0.9 µmol/kg |  | 470 nM | > 10000 nM | 110 nM |  |
| CCCCCCCC[C@@H]1Cc2c(ccc(O)c2O)[C@H](CN)O1 (relative stereo) [Example 64] | 80 |  | 58 µmol/kg |  | 640 nM | 540 nM | 390 nM |  |
| CNCC1OC(CC(C)(C)C)Cc2c1ccc(O)c2O (stereo not shown) [Example 217] | 108 |  | 0.12 µmol/kg |  | 30 nM | 1000 nM | 20 nM |  |
| CNC[C@@H]1O[C@H](CC23CC4CC(CC(C4)C2)C3)Cc2c1ccc(O)c2O (relative stereo) [Example 139] | 129 |  | 0.4 µmol/kg | 23 µmol/kg | 450 nM | 3200 nM | 9.7 nM |  |
| Oc1ccc2c(c1O)CC1(CCCCCC1)C1=C2CNCC1 [Example 199, Spiro[cycloheptane-1,5'-(1',2',3',4',5',6'-hexahydrobenzo[h]isoquinoline)]-7',8'-diol Hydrobromide] |  | 33 nM | 1.5 µmol/kg | 31 µmol/kg | 54 nM | 1400 nM |  | 83 |

Source: US5621133A (priority 1995, dated 1997)
